According to PubChem BioAssay AID2060606 (Molecular Pharmacology Branch, DTP, NCI, 2025):

Tested on: 922993-354-T-J3-PDC complex spheroids, viability, % test/control
Assay: Anticancer human tumor 922993-354-T-J3-PDC patient-derived endometrial carcinoma cell line growth inhibition [CLK]
Conditions: for IC50: curve of first compound; for viability, T/C: stronger effect = lower value
Method in brief: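 Patient-derived tumor cells grown as complex spheroids with HUVEC endothelial cells and mesenchymal stem cells, treated with drug combinations. Concentrations descend in half-log steps from near clinical Cmax, or from 10 microM if Cmax unknown.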
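Also: spheroids exposed to the agents for 7 days before readout.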

## C=CC(=O)Nc1cc(Nc2nccc(-c3cn(C)c4ccccc34)n2)c(OC)cc1N(C)CCN(C)C + CNC(=O)c1ccc(Nc2nc(OC3CCCC3)c3c(-c4ccc5nc(C)oc5c4)c[nH]c3n2)c(OC)c1
Second compound 0.0316 µM
  IC50: > 0.3 µM
Second compound 0.1 µM
  IC50: > 0.3 µM
Second compound 0.316 µM
  IC50: > 0.3 µM
Second compound 1 µM
  IC50: < 0.000949 µM
Second compound 3.16 µM
  IC50: < 0.000949 µM
Second compound 10 µM
  IC50: < 0.000949 µM
Second compound 0.0316 µM, first compound 0.000949 µM
  viability, T/C: 106%
Second compound 0.0316 µM, first compound 0.003 µM
  viability, T/C: 105%
Second compound 0.0316 µM, first compound 0.00949 µM
  viability, T/C: 106%
Second compound 0.0316 µM, first compound 0.03 µM
  viability, T/C: 102%
Second compound 0.0316 µM, first compound 0.0949 µM
  viability, T/C: 96.9%
Second compound 0.0316 µM, first compound 0.3 µM
  viability, T/C: 89.2%
Second compound 0.1 µM, first compound 0.000949 µM
  viability, T/C: 97.5%
Second compound 0.1 µM, first compound 0.003 µM
  viability, T/C: 107%
Second compound 0.1 µM, first compound 0.00949 µM
  viability, T/C: 96.4%
Second compound 0.1 µM, first compound 0.03 µM
  viability, T/C: 98.3%
Second compound 0.1 µM, first compound 0.0949 µM
  viability, T/C: 91.2%
Second compound 0.1 µM, first compound 0.3 µM
  viability, T/C: 86%
Second compound 0.316 µM, first compound 0.000949 µM
  viability, T/C: 70.7%
Second compound 0.316 µM, first compound 0.003 µM
  viability, T/C: 58.9%
Second compound 0.316 µM, first compound 0.00949 µM
  viability, T/C: 55.5%
Second compound 0.316 µM, first compound 0.03 µM
  viability, T/C: 42%
Second compound 0.316 µM, first compound 0.0949 µM
  viability, T/C: 57.1%
Second compound 0.316 µM, first compound 0.3 µM
  viability, T/C: 51.2%
Second compound 1 µM, first compound 0.000949 µM
  viability, T/C: 37.5%
Second compound 1 µM, first compound 0.003 µM
  viability, T/C: 34.9%
Second compound 1 µM, first compound 0.00949 µM
  viability, T/C: 41.9%
Second compound 1 µM, first compound 0.03 µM
  viability, T/C: 42%
Second compound 1 µM, first compound 0.0949 µM
  viability, T/C: 34.6%
Second compound 1 µM, first compound 0.3 µM
  viability, T/C: 35.5%
Second compound 3.16 µM, first compound 0.000949 µM
  viability, T/C: 35.8%
Second compound 3.16 µM, first compound 0.003 µM
  viability, T/C: 33%
Second compound 3.16 µM, first compound 0.00949 µM
  viability, T/C: 34%
Second compound 3.16 µM, first compound 0.03 µM
  viability, T/C: 34.6%
Second compound 3.16 µM, first compound 0.0949 µM
  viability, T/C: 34%
Second compound 3.16 µM, first compound 0.3 µM
  viability, T/C: 29.9%
Second compound 10 µM, first compound 0.000949 µM
  viability, T/C: 26.8%
Second compound 10 µM, first compound 0.003 µM
  viability, T/C: 29.7%
Second compound 10 µM, first compound 0.00949 µM
  viability, T/C: 30%
Second compound 10 µM, first compound 0.03 µM
  viability, T/C: 30.2%
Second compound 10 µM, first compound 0.0949 µM
  viability, T/C: 29%
Second compound 10 µM, first compound 0.3 µM
  viability, T/C: 32.5%
